Earlier results as cited in patent publication US12364989B2, “High throughput method and system for analyzing the effects of agents on planaria” (priority 2019, dated 2025).

How the values were obtained:
[1] = system: planaria; settings: Hagstrom et al., Toxicological Sciences 2015
[2] = system: planaria
[3] = system: planarians; settings: regenerating compared with intact animals

CC1(C)C(C=C(Cl)Cl)C1C(=O)OCc1cccc(Oc2ccccc2)c1 (centres unmarked) [permethrin]
blastema growth rate [1]: did not affect | eye reappearance ([2]; Hagstrom et al., Toxicological Sciences 2015): did delay

C[S+](C)[O-] [DMSO, Dimethyl sulfoxide]
sensitivity of regenerating planarians [3]: increased sensitivity

CCO [ethanol]
sensitivity of regenerating planarians [3]: increased sensitivity

CN(C)C=O [N,N-dimethylformamide]
effect on auricle regeneration ([2]; morphological endpoint, Zhang et al., Toxicological and Industrial Health 2013): effect
